Results published in PMC4413606, “Identification of a new class of natural product MDM2 inhibitor: In vitro and in vivo anti-breast cancer activities and target validation” (Oncotarget, 2014).

Biological target: T1, MDM2 (Homo sapiens, UniProt Q00987)
T1 construct: GST-MDM2
Test: fluorescence polarization competitive binding assay (PMDM6-F tracer); also cellular thermal shift assay in MCF-7 and MDA-MB-231 cells

T1 sequence (Q00987 whole entry): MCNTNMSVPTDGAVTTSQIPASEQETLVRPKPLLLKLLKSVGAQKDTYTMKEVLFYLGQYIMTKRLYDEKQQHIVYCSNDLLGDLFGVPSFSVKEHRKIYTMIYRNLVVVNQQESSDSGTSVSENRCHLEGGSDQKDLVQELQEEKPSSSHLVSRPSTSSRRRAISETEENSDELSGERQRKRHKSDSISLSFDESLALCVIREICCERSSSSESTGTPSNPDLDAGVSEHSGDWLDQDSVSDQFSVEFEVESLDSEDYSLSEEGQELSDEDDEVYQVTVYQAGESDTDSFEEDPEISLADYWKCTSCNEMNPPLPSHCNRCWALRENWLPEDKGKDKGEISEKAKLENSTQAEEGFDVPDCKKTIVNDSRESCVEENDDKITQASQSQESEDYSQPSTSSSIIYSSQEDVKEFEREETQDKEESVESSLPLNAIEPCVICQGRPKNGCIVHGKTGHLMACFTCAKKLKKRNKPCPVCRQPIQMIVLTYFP

**Q.** With JapA as the substance, how does the Ki read?
**A.** 270 nM
